Molecules are shown by their SMILES. Where two headings read alike, the source gives them in different places.

The values that follow come from patent publication US20240122179A1, “AUXINIC HERBICIDES AND METHODS OF USE THEREOF” (CORTEVA AGRISCIENCE LLC, priority 2021, published 2024).

Common to all, as to experiment: Postemergence herbicide evaluation, percent reduction in plant size vs untreated control, 21 days after treatment
For one assay, the system named is Amaranthus rudis (AMATA). It is filed as in vivo, Amaranthus rudis (tall water hemp). Conditions: Amaranthus tuberculatus, post-emergence, 504 h, AMATA, postemergence, read-out: Control/Injury; for pest or weed control at 140 g/ha: rate 140 g ae/ha; for pest or weed control at 280 g/ha: rate 280 g ae/ha. A digest of the protocol:
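Growth-reduction values are percent decrease in plant size relative to untreated plants, scored 21 days post-application. Amaranthus rudis (2-8 leaves) received postemergence sprays at 140 or 280 g ae/ha, 187 L/ha, in a mixed acetone/DMSO/water/isopropanol carrier with crop oil concentrate. Greenhouse conditions were 25-28° C, 50-60% RH; 3-4 randomized replicates.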

Assay [1] has as its system Amaranthus palmeri (AMAPA). It is filed as in vivo, Amaranthus palmeri (Palmer amaranth). Particulars: post-emergence, 504 h, postemergence, read-out: Control/Injury; for pest or weed control at 140 g/ha: rate 140 g ae/ha; for pest or weed control at 280 g/ha: rate 280 g ae/ha. A digest of the protocol: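 Percent reduction in plant size relative to untreated plants, measured 21 days after track-sprayer application (187 L/ha) of 140 or 280 g ae/ha to Amaranthus palmeri at the 2 to 8 leaf stage. Randomized complete block, 3 or 4 replicates, greenhouse at 25 to 28° C; spray solution acetone/DMSO with isopropanol, water and crop oil concentrate.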

The test system of assay [2] is Ambrosia artemisiifolia (AMBEL). The class given is in vivo, Ambrosia artemisiifolia (common ragweed). Particulars: post-emergence, 504 h, AMBEL, postemergence, read-out: Control/Injury; for pest or weed control at 140 g/ha: rate 140 g ae/ha; for pest or weed control at 280 g/ha: rate 280 g ae/ha. The gist of the method: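 Test compounds at 140 or 280 g ae/ha were applied by track sprayer (187 L/ha, spray solution containing acetone/DMSO, isopropanol, crop oil, surfactant) to 2–8 leaf plants, 3–4 replicates. Plants were kept in a greenhouse at 25–28 °C. Size reduction was scored against untreated controls at 21 days.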

The subject of assay [3] is Conyza canadensis (L.) (ERICA). The class given is in vivo, Conyza canadensis (L.) (Horseweed). Conditions: Erigeron canadensis, post-emergence, 504 h, ERICA, postemergence, read-out: Control/Injury; for pest or weed control at 140 g/ha: rate 140 g ae/ha; for pest or weed control at 280 g/ha: rate 280 g ae/ha. The gist of the method: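 Track-sprayer applications (187 L/ha, 276 kPa) of 140 or 280 g ae/ha, technical material dissolved in acetone/DMSO then diluted with crop oil and surfactant-containing solvent, to greenhouse Conyza canadensis at 2-8 leaves. After 21 days, size reduction relative to untreated plants was recorded; 3-4 randomized replicates.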

The test system of a further assay is Kochia scoparia (KCHSC). The class given is in vivo. Conditions: Bassia scoparia, post-emergence, 504 h, KCHSC, postemergence, read-out: Control/Injury; for pest or weed control at 140 g/ha: rate 140 g ae/ha; for pest or weed control at 280 g/ha: rate 280 g ae/ha. A digest of the protocol: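 Values are percent reduction in plant size against an untreated control, measured 21 days after a single postemergence spray at 140 or 280 g ae/ha (187 L/ha, 276 kPa). Treatments used 3-4 randomized complete-block replicates on 2 to 8 leaf-stage plants kept in a 25-28 °C greenhouse, with compounds in acetone/DMSO-based solvent containing crop oil and surfactant.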

[4] abbreviates: percent reduction vs untreated, 21 days after treatment.
Where [5] appears, read: R-AMAPA, percent reduction vs untreated control, 21 days after treatment.
Where [6] appears, read: percent reduction vs untreated control, 21 days after treatment.

On to `COc1c(Cl)ccc(Cl)c1C(=O)OCc1cc(COC(=O)c2c(Cl)ccc(Cl)c2OC)cc(COC(=O)c2c(Cl)ccc(Cl)c2OC)c1` [Compound A-123], for which the pest or weed control at 140 g/ha in the assay on Amaranthus rudis (AMATA) came to 0%; in assay [1] (AMAPA), 2%; in assay [2], 5%; in assay [3] it was 0%; with Kochia scoparia (KCHSC) (setting [4]), 0%. Further, the pest or weed control at 280 g/ha in the assay with Amaranthus rudis (AMATA) stood at 8%; in assay [1] (AMAPA), 3%; in assay [2] it was 5%; in assay [3], 0%; in the assay with Kochia scoparia (KCHSC) (setting [4]), 0%.
In the case of `COc1c(Cl)ccc(Cl)c1C(=O)n1oc2ccccc2c1=O` [Compound A-130], the pest or weed control at 140 g/ha was 20% in the assay with Amaranthus rudis (AMATA); 18% in assay [1] (AMAPA); 40% in assay [2]; 13% in assay [3]; 45% in the assay on Kochia scoparia (KCHSC) (setting [4]). In addition, the pest or weed control at 280 g/ha in the assay on Amaranthus rudis (AMATA) came to 28%; in assay [1] (AMAPA) it was 20%; in assay [2] it was 48%; in assay [3], 28%; with Kochia scoparia (KCHSC) (setting [4]) it was 45%.
`COc1c(Cl)ccc(Cl)c1C(=O)NNc1ccc([N+](=O)[O-])cc1` [Compound A-132]: the pest or weed control at 140 g/ha in the assay with Amaranthus rudis (AMATA) came out at 18%; in assay [1] (AMAPA), 20%; in assay [2], 38%; in assay [3], 23%; with Kochia scoparia (KCHSC) (setting [4]), 8%. The pest or weed control at 280 g/ha amounted to 18% in the assay on Amaranthus rudis (AMATA); 30% in assay [1] (AMAPA); 33% in assay [2]; 8% in assay [3]; 15% in the assay on Kochia scoparia (KCHSC) (setting [4]).
Consider `COc1c(Cl)ccc(Cl)c1C(=O)NNCc1ccccc1` [Compound A-111], for which the pest or weed control at 140 g/ha in the assay with Amaranthus rudis (AMATA) was 18%; in assay [1] (AMAPA), 20%; in assay [2] it was 25%; in assay [3] it was 8%; with Kochia scoparia (KCHSC) (setting [4]), 5%. For the same compound, the pest or weed control at 280 g/ha with Amaranthus rudis (AMATA) came out at 28%; in assay [1] (AMAPA) it was 33%; in assay [2], 35%; in assay [3], 10%; with Kochia scoparia (KCHSC) (setting [4]), 5%.
As to `CCN(CC)OC(=O)c1c(Cl)ccc(Cl)c1OC` [Compound A-64], the pest or weed control at 140 g/ha in the assay on Amaranthus rudis (AMATA) worked out at 3%; in assay [1] (setting [5]), 3%; in assay [2] it was 5%; in assay [3] (setting [6]), 3%; in the assay on Kochia scoparia (KCHSC) it was 0%. In addition, the pest or weed control at 280 g/ha in the assay with Amaranthus rudis (AMATA) came out at 2%; in assay [1] (setting [5]) it was 20%; in assay [2] it was 12%; in assay [3] (setting [6]), 10%; in the assay with Kochia scoparia (KCHSC), 3%.
As to `COc1c(Cl)ccc(Cl)c1C(=O)ON(C)C(=O)c1ccccc1` [Compound A-71], the pest or weed control at 140 g/ha came out at 83% in the assay on Amaranthus rudis (AMATA); 70% in assay [1] (setting [5]); 83% in assay [2]; 85% in assay [3] (setting [6]); 85% in the assay with Kochia scoparia (KCHSC). For the same compound, the pest or weed control at 280 g/ha with Amaranthus rudis (AMATA) is 80%; in assay [1] (setting [5]), 82%; in assay [2], 93%; in assay [3] (setting [6]) it was 92%; in the assay on Kochia scoparia (KCHSC), 87%.
Consider `C=CCONC(=O)c1c(Cl)ccc(Cl)c1OC` [Compound A-101], for which the pest or weed control at 140 g/ha with Amaranthus rudis (AMATA) is 18%; in assay [1] (AMAPA), 18%; in assay [2], 25%; in assay [3], 0%; in the assay with Kochia scoparia (KCHSC) (setting [4]), 0%. Further, the pest or weed control at 280 g/ha in the assay with Amaranthus rudis (AMATA) came out at 33%; in assay [1] (AMAPA), 13%; in assay [2] it was 15%; in assay [3], 8%; in the assay with Kochia scoparia (KCHSC) (setting [4]), 0%.
On to `CCCNNC(=O)c1c(Cl)ccc(Cl)c1OC` [Compound A-112], for which the pest or weed control at 140 g/ha was determined as 13% in the assay on Amaranthus rudis (AMATA); 18% in assay [1] (AMAPA); 18% in assay [2]; 10% in assay [3]; 0% in the assay on Kochia scoparia (KCHSC) (setting [4]). Moreover, the pest or weed control at 280 g/ha amounted to 20% in the assay on Amaranthus rudis (AMATA); 33% in assay [1] (AMAPA); 38% in assay [2]; 10% in assay [3]; 18% in the assay with Kochia scoparia (KCHSC) (setting [4]).
For `CCc1nnc(OC(=O)c2c(Cl)ccc(Cl)c2OC)s1` [Compound A-119], the pest or weed control at 140 g/ha in the assay on Amaranthus rudis (AMATA) amounted to 20%; in assay [1] (AMAPA) it was 8%; in assay [2], 5%; in assay [3] it was 0%; in the assay with Kochia scoparia (KCHSC) (setting [4]) it was 10%. The pest or weed control at 280 g/ha in the assay with Amaranthus rudis (AMATA) turned out to be 13%; in assay [1] (AMAPA), 20%; in assay [2], 10%; in assay [3] it was 10%; in the assay with Kochia scoparia (KCHSC) (setting [4]), 3%.
